Test results: PMC6651501, “Design, Synthesis and Biological Evaluation of Novel Osimertinib-Based HDAC and EGFR Dual Inhibitors” (Molecules, 2019)

Experiments:
[1] = target: EGFR (T790M) (Homo sapiens, UniProt P00533, T790M); assay: In vitro EGFR inhibition, Kinase-Glo Plus luminescence kinase assay; type: biochemical; conditions: for inhibition at 1 µM: 1 μM compound, read-out: EGFR (T790M) Inhibition Rate at 1 μM; for IC50: 10 µM ATP
Description: (§1) The assay was performed using Kinase-Glo Plus luminescence kinase assay kit. All of the enzymatic reactions were conducted at 30 °C for 40 min. The 50 µL reaction mixture in assay buffer contained 10 µM ATP, EGFR kinases, and different concentrations of compounds. Kinase activity was measured by quantitating the amount of ATP remaining in solution following a kinase reaction. The luminescent signal from the assay is correlated with the amount of ATP present and is inversely correlated with the amount of kinase activity. The IC50 values were calculated using nonlinear regression with normalized dose−response fit using Prism GraphPad software (GraphPad Software, San Diego, CA, USA).

[2] = tested on: HDAC (HeLa cell nuclear extract, mainly contains HDAC1 and 2); assay: In vitro HDACs inhibition fluorescent assay (HeLa cell nuclear extract); conditions: read-out: HDAC IC50; HeLa cell nuclear extract as enzyme source
Description: The HDAC inhibitory activities of all the target compounds were evaluated using HeLa cell nuclear extract (mainly contains HDAC1 and 2) as enzyme source.
In brief, 10 μL of HeLa cell nuclear extract was mixed with different concentrations of tested compound (50 μL). […] The inhibition ratios were calculated from the fluorescence intensity readings of tested wells relative to those of control wells, and the IC50 values were calculated using a regression analysis of the concentration/inhibition data.

[3] = tested on: A549; assay: In vitro anti-proliferative MTT assay; type: cell-based; conditions: Homo sapiens, 72 h
[4] = tested on: HeLa; assay: In vitro anti-proliferative MTT assay; conditions: Homo sapiens, 72 h, read-out: IC50 HeLa
Description: (§2) Cell proliferation assay was determined by the MTT (3-[4,5-dimethyl-2-thiazolyl]-2,5-diphenyl-2H-tetrazolium bromide) method. Briefly, cells were passaged the day before dosing into a 96-well plate, allowed to grow for 12 h, and then treated with different concentrations of compound for 72 h. A 0.5% MTT solution was added to each well. After incubation for another 4 h, formazan formed from MTT was extracted by adding 200 μL of DMSO. Absorbance was then determined using a microplate reader at 570 nm.

[5] = tested on: MDA-MB-231; assay: In vitro anti-proliferative MTT assay; conditions: Homo sapiens, MDA-MB-231, 72 h, read-out: IC50 MDA-MB-231
Description: as §2

[6] = tested on: MDA-MB-468; assay: In vitro anti-proliferative MTT assay; conditions: Homo sapiens, MDA-MB-468, 72 h, read-out: IC50 MDA-MB-468
Description: as §2

[7] = tested on: HT-29; assay: In vitro anti-proliferative MTT assay; conditions: Homo sapiens, HT-29, 72 h, read-out: IC50 HT-29
Description: as §2

[8] = tested on: KG-1; assay: In vitro anti-proliferative MTT assay; conditions: Homo sapiens, KG-1, 72 h, read-out: IC50 KG-1
Description: as §2

[9] = target: EGFR (WT) (Homo sapiens, UniProt P00533); assay: In vitro EGFR inhibition, Kinase-Glo Plus luminescence kinase assay; type: biochemical; conditions: 10 µM ATP
Chain of EGFR (WT) (P00533 25-1210): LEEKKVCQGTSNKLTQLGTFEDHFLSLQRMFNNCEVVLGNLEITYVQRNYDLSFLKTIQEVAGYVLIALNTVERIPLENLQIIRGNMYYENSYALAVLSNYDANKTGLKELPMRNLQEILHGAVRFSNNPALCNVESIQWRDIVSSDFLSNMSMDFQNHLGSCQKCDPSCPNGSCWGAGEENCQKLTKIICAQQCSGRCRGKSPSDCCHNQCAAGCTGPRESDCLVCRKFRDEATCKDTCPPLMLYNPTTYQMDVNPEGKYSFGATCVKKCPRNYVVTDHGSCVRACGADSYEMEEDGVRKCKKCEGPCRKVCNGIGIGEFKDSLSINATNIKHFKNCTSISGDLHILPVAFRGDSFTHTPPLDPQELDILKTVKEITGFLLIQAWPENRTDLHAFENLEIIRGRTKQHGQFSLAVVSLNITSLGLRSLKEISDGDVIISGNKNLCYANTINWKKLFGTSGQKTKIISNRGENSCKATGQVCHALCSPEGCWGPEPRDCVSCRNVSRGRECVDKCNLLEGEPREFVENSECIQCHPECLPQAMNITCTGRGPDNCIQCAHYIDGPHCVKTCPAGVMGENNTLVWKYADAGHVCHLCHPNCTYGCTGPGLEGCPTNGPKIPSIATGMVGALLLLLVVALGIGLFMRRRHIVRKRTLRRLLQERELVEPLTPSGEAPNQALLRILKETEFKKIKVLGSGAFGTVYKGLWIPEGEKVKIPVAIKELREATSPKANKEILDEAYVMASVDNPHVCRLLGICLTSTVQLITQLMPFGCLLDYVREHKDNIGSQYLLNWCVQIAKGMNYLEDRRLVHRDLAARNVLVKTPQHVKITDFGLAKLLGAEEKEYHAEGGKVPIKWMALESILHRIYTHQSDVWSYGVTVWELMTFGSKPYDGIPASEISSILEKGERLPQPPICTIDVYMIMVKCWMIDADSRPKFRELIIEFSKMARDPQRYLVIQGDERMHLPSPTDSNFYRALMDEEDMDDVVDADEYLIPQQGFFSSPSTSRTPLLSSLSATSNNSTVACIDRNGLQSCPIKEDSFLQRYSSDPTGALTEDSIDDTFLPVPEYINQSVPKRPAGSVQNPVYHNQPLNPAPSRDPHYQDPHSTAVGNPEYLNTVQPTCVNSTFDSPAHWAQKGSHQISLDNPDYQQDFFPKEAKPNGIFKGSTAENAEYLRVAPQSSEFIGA
Description: as §1

[10] = tested on: PC-3; assay: In vitro anti-proliferative MTT assay; type: cell-based; conditions: Homo sapiens, 72 h
[11] = tested on: thirteen cancer-related kinases; assay: Kinases inhibition assay (Eurofins Cerep, LANCE detection); type: biochemical, human; conditions: 100 nM compound, Figure 4
Description: Compound 9E was further tested against thirteen cancer-related kinases to characterize its protein kinase selective profile.
The kinase inhibition assays were performed by Eurofins Cerep Corporation in France. In brief, evaluation of the effects of compounds on the activity of the human kinases was quantified by measuring the phosphorylation of the corresponding substrate using human recombinant enzymes and the LANCE detection method.

[12] = target: LSD1 (Homo sapiens, UniProt O60341); assay: Amplex red coupled LSD1 inhibition assay; type: biochemical; conditions: 10 μM compound
Description: Lysine specific demethylase 1 (LSD1, also known as KDM1A) is a kind of epigenetic eraser, which catalyzes the oxidative demethylation of histone 3 methyllysine 4 (H3K4me1) and histone 3 dimethyllysine 4 (H3K4me2). It has been reported that LSD1 is overexpressed in various cancer cells and tissues, and regarded as a potential anticancer target.
Amplex red coupled LSD1 inhibition assay was carried out following reported method. In brief, the compounds were incubated with the recombinant LSD1 and H3K4me2. After that, the fluorescence was measured at excitation wavelength 530 nm and emission wavelength 590 nm in order to evaluate the inhibition rate of the candidate compound.

[13] = target: T1, BRD4 (BD1) (Homo sapiens, UniProt O60885); assay: BRD4 inhibition assay (TR-FRET); type: binding; conditions: 1 μM compound
T1 construct: using the recombinant BRD4 (BD1) and its corresponding ligand (BET)
Description: The assay was performed by TR-FRET technology using the recombinant BRD4 (BD1) and its corresponding ligand (BET). The TR-FRET signal from the assay is correlated with the amount of ligand binding to the bromodomain. All of the binding reactions were conducted at room temperature. The 20 µL reaction mixture in assay buffer contained bromodomains, BET ligand and the indicated amount of inhibitor. For the negative control (blank), 5 µL of the assay buffer was added instead of the BET ligand. The reaction mixture was incubated for 120 min, then TR-FRET signal was measured using Tecan Infinite M1000 plate reader (Tecan, Männedorf, Switzerland).

Chain of EGFR (T790M) (P00533 25-1210 T790M): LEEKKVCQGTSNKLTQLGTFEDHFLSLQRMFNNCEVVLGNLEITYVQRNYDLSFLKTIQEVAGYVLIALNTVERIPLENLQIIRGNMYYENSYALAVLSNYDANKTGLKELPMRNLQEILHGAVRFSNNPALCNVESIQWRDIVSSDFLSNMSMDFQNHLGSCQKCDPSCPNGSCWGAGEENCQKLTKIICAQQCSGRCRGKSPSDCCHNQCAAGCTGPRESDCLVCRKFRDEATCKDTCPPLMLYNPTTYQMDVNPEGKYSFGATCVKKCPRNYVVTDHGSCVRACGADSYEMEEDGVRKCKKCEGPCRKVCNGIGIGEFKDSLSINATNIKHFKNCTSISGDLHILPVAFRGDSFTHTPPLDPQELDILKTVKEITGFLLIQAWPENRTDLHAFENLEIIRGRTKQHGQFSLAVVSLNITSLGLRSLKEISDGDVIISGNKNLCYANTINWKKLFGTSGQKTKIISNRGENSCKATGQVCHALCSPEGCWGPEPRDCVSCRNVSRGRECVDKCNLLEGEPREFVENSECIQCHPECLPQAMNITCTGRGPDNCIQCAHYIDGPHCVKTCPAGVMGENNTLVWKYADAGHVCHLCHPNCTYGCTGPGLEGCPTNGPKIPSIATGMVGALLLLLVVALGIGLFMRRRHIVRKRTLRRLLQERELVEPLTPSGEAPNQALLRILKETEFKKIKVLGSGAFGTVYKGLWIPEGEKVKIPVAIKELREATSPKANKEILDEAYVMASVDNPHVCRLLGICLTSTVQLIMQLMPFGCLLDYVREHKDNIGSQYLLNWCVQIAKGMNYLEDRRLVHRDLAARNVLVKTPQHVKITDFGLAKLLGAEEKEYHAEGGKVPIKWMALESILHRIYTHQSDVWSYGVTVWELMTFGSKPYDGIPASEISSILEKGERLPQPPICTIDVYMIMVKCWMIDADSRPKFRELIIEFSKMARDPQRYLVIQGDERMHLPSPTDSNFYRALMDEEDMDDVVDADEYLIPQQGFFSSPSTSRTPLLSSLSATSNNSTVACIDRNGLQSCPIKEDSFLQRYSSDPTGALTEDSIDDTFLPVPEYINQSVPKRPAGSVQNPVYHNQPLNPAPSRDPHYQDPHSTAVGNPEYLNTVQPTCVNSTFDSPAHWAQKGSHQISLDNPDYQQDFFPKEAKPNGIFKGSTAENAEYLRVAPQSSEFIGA

SMILES	inhibition at 1 µM [1]	melting point	IC50 [2]	IC50 [3]	IC50 [4]	IC50 [5]	IC50 [6]	IC50 [7]	IC50 [8]	further results
COc1cc(NC(=O)CCCCC(=O)NO)ccc1Nc1nccc(-c2cn(C)c3ccccc23)n1 [Compound 9C, N^1-hydroxy-N^6-(3-methoxy-4-((4-(1-methyl-1H-indol-3-yl)pyrimidin-2-yl)amino)phenyl) adipamide]	12%	118 to 120 °C	0.397 µM							
Cn1cc(-c2ccnc(Nc3ccc(C(=O)NCCCCCC(=O)NO)cc3)n2)c2ccccc21 [Compound 5D, N-(6-(hydroxyamino)-6-oxohexyl)-4-((4-(1-methyl-1H-indol-3-yl)pyrimidin-2-yl)amino) benzamide]	35%	168 to 170 °C	0.023 µM	3.56 µM	4.06 µM	1.16 µM	0.66 µM	2.94 µM	1.47 µM	
COc1cc(NC(=O)CCC(=O)NO)ccc1Nc1nccc(-c2cn(C)c3ccccc23)n1 [Compound 9A, N^1-hydroxy-N^4-(3-methoxy-4-((4-(1-methyl-1H-indol-3-yl)pyrimidin-2-yl)amino)phenyl) succinimide]	38%	151 to 153 °C								
Cn1cc(-c2ccnc(Nc3ccc(C(=O)NCCC(=O)NO)cc3)n2)c2ccccc21 [Compound 5A, N-(3-(hydroxyamino)-3-oxopropyl)-4-((4-(1-methyl-1H-indol-3-yl)pyrimidin-2-yl)amino) benzamide]	36%	164 to 167 °C								
Cn1cc(-c2ccnc(Nc3ccc(C(=O)NCCCCC(=O)NO)cc3)n2)c2ccccc21 [Compound 5C, N-(5-(hydroxyamino)-5-oxopentyl)-4-((4-(1-methyl-1H-indol-3-yl)pyrimidin-2-yl)amino) benzamide]	42%	144 to 147 °C	0.462 µM							
O=C(CCCCCCC(=O)Nc1ccccc1)NO [SAHA, suberoylanilide hydroxamic acid, reference compound]				2.13 µM						
Cn1cc(-c2ccnc(Nc3ccc(C(=O)NCCCC(=O)NO)cc3)n2)c2ccccc21 [Compound 5B, N-(4-(hydroxyamino)-4-oxobutyl)-4-((4-(1-methyl-1H-indol-3-yl)pyrimidin-2-yl)amino) benzamide]	34%	165 to 168 °C								
COc1cc(NC(=O)CCCCCCC(=O)NO)ccc1Nc1nccc(-c2cn(C)c3ccccc23)n1 [Compound 9E, N^1-hydroxy-N^8-(3-methoxy-4-((4-(1-methyl-1H-indol-3-yl)pyrimidin-2-yl)amino)phenyl) octanediamide]	15%		0.085 µM	2.19 µM	1.85 µM	0.6 µM	0.23 µM	0.79 µM	0.24 µM	IC50 [1]: 5 µM; IC50 [9]: 5.7 µM; IC50 [10]: 3.39 µM; Inhibition of 13 protein kinases at 100 nM [11]: no significant inhibition; LSD1 Inhibition Rate at 10 μM [12]: no significant inhibition; inhibition at 10 µM ([12]; read-out: LSD1 Inhibition Rate at 10 μM): 13%; BRD4 Inhibition Rate at 1 μM [13]: not active; inhibition at 1 µM ([13]; read-out: BRD4 Inhibition Rate at 1 μM): 0%
C=CC(=O)Nc1cc(Nc2nccc(-c3cn(C)c4ccccc34)n2)c(OC)cc1N(C)CCN(C)C [AZD9291, osimertinib]				1.97 µM	3.27 µM	3.54 µM	1.3 µM	0.87 µM	0.53 µM	IC50 [10]: 1.23 µM
COc1cc(NC(=O)CCCC(=O)NO)ccc1Nc1nccc(-c2cn(C)c3ccccc23)n1 [Compound 9B, N^1-hydroxy-N^5-(3-methoxy-4-((4-(1-methyl-1H-indol-3-yl)pyrimidin-2-yl)amino)phenyl) glutaramide]	37%	146 to 148 °C								
Cn1cc(-c2ccnc(Nc3ccc(C(=O)NO)cc3)n2)c2ccccc21 [Compound 10A, N-hydroxy-4-((4-(1-methyl-1H-indol-3-yl)pyrimidin-2-yl)amino) benzamide]	41%	108 to 111 °C								
Cn1cc(-c2ccnc(Nc3ccc(C(=O)NCCCCCCC(=O)NO)cc3)n2)c2ccccc21 [Compound 5E, N-(7-(hydroxyamino)-7-oxoheptyl)-4-((4-(1-methyl-1H-indol-3-yl)pyrimidin-2-yl)amino) benzamide]	44%	161 to 163 °C	0.105 µM	2.4 µM	2.79 µM	0.66 µM	0.33 µM	1.99 µM	0.52 µM	IC50 [1]: 1.2 µM; IC50 [9]: 3.2 µM; IC50 [10]: 2.25 µM
Cn1cc(-c2ccnc(Nc3ccc(C(=O)Nc4ccccc4N)cc3)n2)c2ccccc21 [Compound 10B, N-(2-aminophenyl)-4-((4-(1-methyl-1H-indol-3-yl)pyrimidin-2-yl)amino) benzamide]	40%	164 to 168 °C								
COc1cc(NC(=O)CCCCCC(=O)NO)ccc1Nc1nccc(-c2cn(C)c3ccccc23)n1 [Compound 9D, N^1-hydroxy-N^7-(3-methoxy-4-((4-(1-methyl-1H-indol-3-yl)pyrimidin-2-yl)amino)phenyl) heptanediamide]	13%		0.121 µM	5.11 µM	5.64 µM	3.69 µM	1.07 µM	4.13 µM	3.62 µM	IC50 [10]: 5.45 µM
